Experimental findings from patent US20140107171A1, “Methods of Treating an Overweight or Obese Subject” (Zafgen, Inc., priority 2008, published 2014) are described below.

The subject of this assay is diet-induced obese mice. The assay can be described thus: Weight loss study in diet-induced obese mice, oral administration. Format: in vivo. As to conditions: C57BL/6NTac mice on 60% fat diet; 1.0 mg/kg orally in 10% gelucire in deionised water, once a day for 8 days. The procedure:
A weight loss study is conducted in obese mice. The mice in this study are not genetically obese, BUT prior to and during the study, obesity is induced by a high-fat diet. Twelve week-old C57BL/6NTac mice, are maintained on a 60% fat diet prior to and during the study, are separated into […], eight animals per group. Average body weight of the mice is taken at the start of the study.
Each of six groups is orally administered 1.0 mg/kg of a compound disclosed herein in 10% gelucire in DEIONISED water. Each of these six groups is administered a different compound. One group is orally administered fumagillin at 1.0 mg/kg in 10% gelucire in deionised water, and one group is administered 10% gelucire in deionised water (vehicle). Mice receive administrations once a day for 8 days.

As to `CO[C@@H]1[C@H](OC(=O)/C=C/C=C/C=C/C=C/C(=O)O)CC[C@]2(CO2)[C@H]1[C@@]1(C)O[C@@H]1CC=C(C)C` [fumagillin], the “body weight change over the course of the 8 days” value is given as “weight over the course of the 8 days”.
